Measured values taken from patent publication US6894068B2, “Substituted benzimidazoles as non-nucleoside inhibitors of reverse transcriptase” (The United States of America as represented by the …, priority 1997, dated 2005).
Read-outs that look alike come from different tables or passages of the source.

Key:
HIV-1 WT RT = HIV-1 WT RT (Human immunodeficiency virus type 1 group M subtype B, UniProt P03366); test: biochemical; type: biochemical; conditions: for inhibition at 1 µM: 1 μM drug, WT HIV-1 RT, read-out: % inhibn (1 μM)
HIV-1 isolate K103N = test: Cytopathic cell killing assay, MT-4 cells, isolate K103N; type: cell-based
Text: (§1) The various HIV isolates tested in the Figures are those corresponding to wild-type virus (NL4-3) and the other strains listed by their RT mutations. The three 4×AZT isolates included in the Figures represent AZT drug-resistant variants. For example, the 4×AZT/L100I isolate has five mutations: four mutations confer increased resistance to AZT, and the other mutation is located within the NNRTI binding pocket. TZB and nevir. (nevirapine) are two well-known NNRTIs, included in this experiment for comparison purposes.
(§2) In this Example, the antiviral and cellular toxicity of NNRTIs was investigated, using the cytopathic cell killing assay described by Yang (Yang et al., “Characteristics of a Group of Non-nucleoside Reverse Transcriptase Inhibitors with Structural Diversity and Potent Anti-Human Immunodeficiency Virus Activity,” Leukemia 9:S75-S85 [1995]). Briefly, in this method cells (e.g., the CEM-SS cell line, available from the NIAID AIDS Research and Reference Program [ARRRP]) were seeded at a density of 5×10^3 cells/well, into the wells of a 96-well microtiter plate. The cells were then infected with HIV virus (either mutant or WT), at a multiplicity of infection (MOI) previously determined to provide complete cell killing by 6 days of culture post-infection (e.g., MOI of 0.01-0.05). Each of the HIV isolates was pre-titered to induce equivalent levels of infection based on cell killing or virus production, prior to their use in these assays. A range of test compound concentrations was added to the wells in triplicate (e.g., serial half-log dilutions) to evaluate inhibition of HIV infection. Controls for each assay included drug controls (drug colorimetric control wells), drug cytotoxicity control wells (cells with drug), virus control wells (cells with virus), and cell viability controls (cells only). Positive control drugs (e.g. AZT and ddC) were also run in parallel.
(§3) After six days of incubation at 37° C., cell viability was determined spectrophotometrically at 450 nm for each well, using the metabolic reduction of XTT to a soluble colored formazan. (See, Gartner and Popovic, “Virus Isolation and Production, in Aldovini and Walker (eds.), Techniques in HIV Research, Stockton Press, NY, pp. […] [1991]; and Nara and Fischinger, “Quantitative Infectivity Assay for HIV-1 and HIV-2, ” Nature 332:469-470 [1988]).
(§4) The in vitro therapeutic index (TI50) was defined as the fold-difference between the EC50 and IC50. The results for the various compounds are included in FIGS. 8 and 19.

HIV-1 isolate Y181C = test: Cytopathic cell killing assay, MT-4 cells, isolate Y181C; type: cell-based
Text: as §1, §2, §3, §4

HIV-1 isolate V106A = test: Cytopathic cell killing assay, MT-4 cells, isolate V106A; type: cell-based; conditions: Human immunodeficiency virus 1, MT4, read-out: EC50, isolate V106A, Table 8; MT-4 cells
Text: as §1
In this Example, the antiviral and cellular toxicity of NNRTIs was investigated, using the cytopathic cell killing assay described by Yang (Yang et al., “Characteristics of a Group of Non-nucleoside Reverse Transcriptase Inhibitors with Structural Diversity and Potent Anti-Human Immunodeficiency Virus Activity,” Leukemia 9:S75-S85 [1995]). Briefly, in this method cells (e.g., the CEM-SS cell line, available from the NIAID AIDS Research and Reference Program [ARRRP]) were seeded at a density of 5×10^3 cells/well, into the wells of a 96-well microtiter plate. The cells were then infected with HIV virus (either mutant or WT), at a multiplicity of infection (MOI) previously determined to provide complete cell killing by 6 days of culture post-infection (e.g., MOI of 0.01-0.05). Each of the HIV isolates was pre-titered to induce equivalent levels of infection based on cell killing or virus production, prior to their use in these assays. A range of test compound concentrations was added to the wells in triplicate (e.g., serial half-log dilutions) to evaluate inhibition of HIV infection. […]
After six days of incubation at 37° C., cell viability was determined spectrophotometrically at 450 nm for each well, using the metabolic reduction of XTT to a soluble colored formazan. (See, Gartner and Popovic, “Virus Isolation and Production, in Aldovini and Walker (eds.), Techniques in HIV Research, Stockton Press, NY, pp. […] [1991]; and Nara and Fischinger, “Quantitative Infectivity Assay for HIV-1 and HIV-2, ” Nature 332:469-470 [1988]). […]

HIV-1 NL4-3 (WT) = test: Cytopathic cell killing assay, MT-4 cells, isolate NL4-3 (WT); type: cell-based
Text: as §1, §2, §3, §4

HIV-1 isolate V108I = test: Cytopathic cell killing assay, MT-4 cells, isolate V108I; type: cell-based; conditions: MT-4 cells
Text: as §1, §2, §3, §4

HIV-1 isolate Y188C = test: Cytopathic cell killing assay, MT-4 cells, isolate Y188C; type: cell-based
Text: as §1, §2, §3, §4

HIV-1 WT virus (NL4-3) = test: microbe, parasite or virus in culture; type: cell-based; conditions: for EC50: Human immunodeficiency virus 1, NL43, CEM-SS, read-out: EC50
Procedure: Evaluation of these compounds for the inhibition of HIV-1 was determined as the fifty percent cell culture inhibitory concentration (CIC50) in CEMSS cell culture with WT virus (NL4-3).
as §2, §3, §4

HIV-1 isolate V179D = test: Cytopathic cell killing assay, MT-4 cells, isolate V179D; type: cell-based; conditions: Human immunodeficiency virus 1, MT4, read-out: EC50, isolate V179D, Table 8; MT-4 cells
Text: as §1, §2, §3, §4

[1] = tested on: WT and HIV-1 variants containing amino acid substitutions in RT; type: cell-based
Text: In these Tables, antiviral data are reported as the quantity of drug in μM required to reduce cell killing or virus production by 50% (EC50). The various HIV isolates tested in the Figures are those corresponding to wild-type virus (NL4-3) and the other strains listed by their RT mutations. The three 4×AZT isolates included in the Figures represent AZT drug-resistant variants.
Briefly, in this method cells (e.g., the CEM-SS cell line, available from the NIAID AIDS Research and Reference Program [ARRRP]) were seeded at a density of 5×10^3 cells/well, into the wells of a 96-well microtiter plate. The cells were then infected with HIV virus (either mutant or WT), at a multiplicity of infection (MOI) previously determined to provide complete cell killing by 6 days of culture post-infection (e.g., MOI of 0.01-0.05). Each of the HIV isolates was pre-titered to induce equivalent levels of infection based on cell killing or virus production, prior to their use in these assays. A range of test compound concentrations was added to the wells in triplicate (e.g., serial half-log dilutions) to evaluate inhibition of HIV infection. Controls for each assay included drug controls (drug colorimetric control wells), drug cytotoxicity control wells (cells with drug), virus control wells (cells with virus), and cell viability controls (cells only). Positive control drugs (e.g. AZT and ddC) were also run in parallel.
as §3
Antiviral and toxicity data were reported as the quantity of drug required to inhibit 50% of virus-induced cell killing or virus production (EC50), and the quantity of drug required to […] (IC50). The in vitro therapeutic index (TI50) was defined as the fold-difference between the EC50 and IC50.

HIV-1 isolate A98G = test: Cytopathic cell killing assay, MT-4 cells, isolate A98G; type: cell-based; conditions: Human immunodeficiency virus 1, MT4, read-out: EC50, isolate A98G, Table 8; MT-4 cells
Text: as §1, §2, §3, §4

HIV-1 isolate K101E = test: Cytopathic cell killing assay, MT-4 cells, isolate K101E; type: cell-based; conditions: MT-4 cells
Text: as §1, §2, §3, §4

HIV-1 isolate L100I = test: Cytopathic cell killing assay, MT-4 cells, isolate L100I; type: cell-based
Text: as §1, §2, §3, §4

HIV-1 isolate L74V = test: Cytopathic cell killing assay, MT-4 cells, isolate L74V; type: cell-based; conditions: Human immunodeficiency virus 1, MT4, read-out: EC50, isolate L74V, Table 8; MT-4 cells
Text: as §1, §2, §3, §4

[2] = tested on: HIV-1 isolate 4xAZT/Y181C; test: Cytopathic cell killing assay, MT-4 cells, isolate 4xAZT/Y181C; type: cell-based
Text: as §1, §2, §3, §4

[3] = Table 7, drug concentration required to reduce cell killing or virus production by 50%, WT
[4] = Table 11, CEMSS/NL4-3, NRVC = no reduction in viral CPE

CC(=O)Nc1cccc2c1nc(-c1c(F)cccc1F)n2Cc1c(F)cccc1F [Compound 3600, 1-(2,6-difluorobenzyl)-2-(2,6-difluorophenyl)-4-acetamidobenzimidazole] showed an IC50 (HIV-1 WT RT) of 54.7 µM, an inhibition at 1 µM (HIV-1 WT RT; Table 7) of 24% and an EC50 (HIV-1 isolate K103N; Human immunodeficiency virus 1, MT4, read-out: EC50, isolate K103N, Table 8, MT-4 cells) of over 20 µM. For the same molecule, the EC50 (HIV-1 isolate K103N; Human immunodeficiency virus 1, MT4, read-out: EC50, isolate K103N, Table 10, values in μM) was over 100 µM, the melting point was 194 to 195 °C and the EC50 (HIV-1 isolate Y181C; Human immunodeficiency virus 1, MT4, read-out: EC50, isolate Y181C, Table 8, MT-4 cells) was over 10 µM. The EC50 (HIV-1 isolate Y181C; Human immunodeficiency virus 1, MT4, read-out: EC50, isolate Y181C, Table 10, values in μM) was over 100 µM, the EC50 (HIV-1 isolate V106A) was over 20 µM and the EC50 (HIV-1 NL4-3 (WT); Human immunodeficiency virus 1, NL43, MT4, Table 8, MT-4 cells, read-out: EC50, isolate NL4-3) was 1.6 µM. It also gave an EC50 (HIV-1 NL4-3 (WT); Human immunodeficiency virus 1, NL43, MT4, Table 10, values in μM, read-out: EC50, isolate NL4-3 (WT)) of 1.97 µM, an EC50 (HIV-1 isolate V108I; Human immunodeficiency virus 1, MT4, read-out: EC50, isolate V1081, Table 8) of 5.3 µM and an EC50 (HIV-1 isolate Y188C; Human immunodeficiency virus 1, MT4, read-out: EC50, isolate Y188C, Table 8, MT-4 cells) of over 10 µM. The EC50 (HIV-1 WT virus (NL4-3); [3]) was 1.48 µM, the EC50 (HIV-1 isolate V179D) was 1.7 µM and the “cross-resistance profile, result in words” value ([1]; cytopathic cell killing assay, NNRTI-resistant HIV isolates) was “inhibit HIV-1 better than TZB”. It also gave an EC50 (HIV-1 isolate A98G) of 4.3 µM, an EC50 (HIV-1 isolate K101E; Human immunodeficiency virus 1, MT4, read-out: EC50, isolate K101E, Table 8) of over 20 µM and an EC50 (HIV-1 isolate L100I; Human immunodeficiency virus 1, MT4, read-out: EC50, isolate L100I, Table 10, values in μM) of 3.25 µM. It also gave an EC50 (HIV-1 isolate L100I; Human immunodeficiency virus 1, MT4, read-out: EC50, isolate L1001, Table 8, MT-4 cells) of 2.1 µM and an EC50 (HIV-1 isolate L74V) of 1.2 µM.

For Fc1cccc(F)c1Cn1c(-c2c(F)cccc2F)nc2ccccc21 [Compound 26, 1-(2,6-difluorobenzyl)-2-(2,6-difluorophenyl)benzimidazole], the inhibition at 1 µM (HIV-1 WT RT; Table 5, average of two experiments done in triplicates) was 50%, the “RT inhibition, result in words” value (HIV-1 WT RT; WT RT) was “four-fold increase in inhibitory activity” and the EC50 (HIV-1 WT virus (NL4-3); [4]) was 1.7 µM. It also gave an EC50 ([2]; Human immunodeficiency virus 1, MT4, read-out: EC50, isolate 4XAZT/Y181C) of over 20 µM.

Molecule Cc1cccc2c1nc(-c1c(F)cccc1F)n2Cc1c(F)cccc1F [Compound 33, 1-(2,6-difluorobenzyl)-2-(2,6-difluorophenyl)-4-methylbenzimidazole] has an EC50 (HIV-1 isolate K103N; Human immunodeficiency virus 1, MT4, read-out: EC50, isolate K103N, Table 4, MT-4 cells) of 8.1 µM, a melting point of 182 to 186 °C and an EC50 (HIV-1 isolate Y181C; Human immunodeficiency virus 1, MT4, read-out: EC50, isolate Y181C, Table 9, MT-4 cells) of 4.3 µM. It also gave an EC50 (HIV-1 isolate V108I; Human immunodeficiency virus 1, MT4, read-out: EC50, isolate V108I, Table 4) of 2.8 µM, an EC50 (HIV-1 isolate Y188C; Human immunodeficiency virus 1, MT4, read-out: EC50, isolate Y188C, Table 4, MT-4 cells) of 2.3 µM and an EC50 (HIV-1 isolate Y188C; Human immunodeficiency virus 1, MT4, read-out: EC50, isolate Y188C, Table 10, values in μM) of 2.3 µM. For the same molecule, the “cytotoxicity and anti-viral effect, summary graph, result in words” value (HIV-1 WT virus (NL4-3); FIGS. 10-12) was “very effective therapeutic dose”, the EC50 (HIV-1 WT virus (NL4-3); [3]) was 0.44 µM and the EC50 (HIV-1 WT virus (NL4-3); [4]) was 0.44 µM. For the same molecule, the “therapeutic index at 50% (TC50)” value (HIV-1 WT virus (NL4-3); difference between efficacy of the drug and cellular toxicity, FIG. 10) was “greater than one log in concentration”, the “fold better in the inhibition of the various viral isolates than des-methyl analog 26” value ([1]; Table 4 isolates) was 3- to 4 fold and the EC50 ([2]; read-out: EC50, isolate 4XAZT/Y181C, Table 9, MT-4 cells) was 3.5 µM. It also gave an EC50 (HIV-1 isolate K101E; Human immunodeficiency virus 1, MT4, read-out: EC50, isolate K101E, Table 4) of 16.7 µM.
